28 molecules from ChEMBL document CHEMBL2163248, “Classification of inhibitors of hepatic organic anion transporting polypeptides (OATPs): influence of protein expression on drug-drug interactions” (J Med Chem, 2012) can be followed below.

Where a SMILES comes first, the peptide text is derived from it.

Series [1] concerns the target T1, Solute carrier organic anion transporter family member 2B1 (Homo sapiens, UniProt O94956).
T1 sequence (O94956 whole entry): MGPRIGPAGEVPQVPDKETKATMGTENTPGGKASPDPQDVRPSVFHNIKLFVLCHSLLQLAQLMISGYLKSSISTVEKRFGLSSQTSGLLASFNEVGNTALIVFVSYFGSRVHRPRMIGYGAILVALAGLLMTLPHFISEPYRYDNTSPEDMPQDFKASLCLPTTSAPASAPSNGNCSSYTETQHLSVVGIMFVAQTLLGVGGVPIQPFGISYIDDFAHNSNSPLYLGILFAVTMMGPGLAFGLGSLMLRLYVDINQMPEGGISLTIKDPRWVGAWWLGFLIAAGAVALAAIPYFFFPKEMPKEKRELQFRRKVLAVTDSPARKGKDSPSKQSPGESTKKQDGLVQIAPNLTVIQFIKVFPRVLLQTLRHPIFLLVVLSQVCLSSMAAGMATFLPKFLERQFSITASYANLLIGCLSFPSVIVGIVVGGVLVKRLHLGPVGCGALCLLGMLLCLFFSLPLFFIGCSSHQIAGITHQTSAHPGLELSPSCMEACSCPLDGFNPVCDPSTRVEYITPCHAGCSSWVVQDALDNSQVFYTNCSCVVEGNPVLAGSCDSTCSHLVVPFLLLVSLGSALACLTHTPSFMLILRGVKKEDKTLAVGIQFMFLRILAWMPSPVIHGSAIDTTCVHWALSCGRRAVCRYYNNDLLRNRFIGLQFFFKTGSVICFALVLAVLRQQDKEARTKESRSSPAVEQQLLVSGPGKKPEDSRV
The experiment in a line: Inhibition of human liver OATP2B1 expressed in HEK293 Flp-In cells assessed as reduction in [3H]E3S uptake at 20 uM incubated for 5 mins by scintillation counting. The conditions noted are these: hek293, 5 min.

Series [2] has as its target T2, Solute carrier organic anion transporter family member 1B1 (Homo sapiens, UniProt Q9Y6L6).
T2 sequence (Q9Y6L6 whole entry): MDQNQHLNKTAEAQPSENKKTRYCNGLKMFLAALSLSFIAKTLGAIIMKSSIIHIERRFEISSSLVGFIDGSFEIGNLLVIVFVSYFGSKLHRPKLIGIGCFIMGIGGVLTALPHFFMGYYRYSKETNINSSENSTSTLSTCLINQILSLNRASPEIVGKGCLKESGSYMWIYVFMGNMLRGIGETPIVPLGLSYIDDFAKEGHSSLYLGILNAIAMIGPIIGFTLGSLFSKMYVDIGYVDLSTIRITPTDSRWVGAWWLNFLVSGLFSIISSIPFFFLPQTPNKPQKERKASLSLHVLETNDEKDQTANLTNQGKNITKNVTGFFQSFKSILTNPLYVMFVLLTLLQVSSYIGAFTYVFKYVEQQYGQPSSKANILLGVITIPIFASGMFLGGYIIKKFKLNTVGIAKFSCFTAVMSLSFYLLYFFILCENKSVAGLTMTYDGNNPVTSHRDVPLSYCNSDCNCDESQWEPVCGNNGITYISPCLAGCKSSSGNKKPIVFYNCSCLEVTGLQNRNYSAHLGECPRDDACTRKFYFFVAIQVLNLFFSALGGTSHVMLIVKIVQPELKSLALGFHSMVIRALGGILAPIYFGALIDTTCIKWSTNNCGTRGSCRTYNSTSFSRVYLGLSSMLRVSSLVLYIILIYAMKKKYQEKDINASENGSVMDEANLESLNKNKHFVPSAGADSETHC
As to the kind of experiment: Inhibition of human liver OATP1B1 expressed in HEK293 Flp-In cells assessed as reduction in E17-betaG uptake at 20 uM by scintillation counting. The conditions noted are these: hek293, 20 µM.

The target in series [3] is T3, Solute carrier organic anion transporter family member 1B3 (Homo sapiens, UniProt Q9NPD5).
T3 sequence (Q9NPD5 whole entry): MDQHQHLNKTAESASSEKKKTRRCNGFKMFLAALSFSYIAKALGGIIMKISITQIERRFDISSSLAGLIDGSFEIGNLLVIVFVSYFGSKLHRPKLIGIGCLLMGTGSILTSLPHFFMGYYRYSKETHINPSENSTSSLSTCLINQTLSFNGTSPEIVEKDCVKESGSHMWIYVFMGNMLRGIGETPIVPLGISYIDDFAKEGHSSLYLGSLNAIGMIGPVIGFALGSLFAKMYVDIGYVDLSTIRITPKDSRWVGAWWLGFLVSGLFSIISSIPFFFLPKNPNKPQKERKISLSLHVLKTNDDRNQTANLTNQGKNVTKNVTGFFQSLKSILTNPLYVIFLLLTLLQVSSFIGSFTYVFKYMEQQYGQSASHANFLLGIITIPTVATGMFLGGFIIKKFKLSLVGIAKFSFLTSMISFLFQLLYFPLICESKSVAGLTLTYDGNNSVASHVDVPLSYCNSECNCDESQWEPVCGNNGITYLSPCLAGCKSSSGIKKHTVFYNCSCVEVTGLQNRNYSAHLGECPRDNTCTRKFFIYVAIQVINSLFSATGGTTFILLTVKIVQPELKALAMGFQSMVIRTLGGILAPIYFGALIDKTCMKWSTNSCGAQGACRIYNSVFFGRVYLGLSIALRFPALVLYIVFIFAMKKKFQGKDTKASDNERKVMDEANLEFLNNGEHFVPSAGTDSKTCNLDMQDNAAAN
As to the kind of experiment: Inhibition of human liver OATP1B3 expressed in HEK293 Flp-In cells assessed as reduction in [3H]E17-betaG uptake at 20 uM incubated for 5 mins by scintillation counting. The conditions noted are these: hek293, 5 min.

For `Cc1nc2c([nH]1)c(=O)n(C)c(=O)n2Cc1ccco1` [FURAFYLLINE], the INH is given as 18.1% in series [1], -14.7% in series [2] and 0.7% in series [3].

Consider `Cc1ccc(C)c(OCCCC(C)(C)C(=O)O)c1` [GEMFIBROZIL], for which the INH worked out at 15.1% in series [1], 59.3% in series [2] and 14.4% in series [3].

In the case of `O=c1c(-c2ccc(O)cc2)coc2cc(O)cc(O)c12` [GENISTEIN], the INH in series [1] is on record as 67.9%; in series [2] it was 84.9%; in series [3] it was -5%.

Turning to `C[C@H](CCC(=O)NCC(=O)O)[C@H]1CC[C@H]2[C@@H]3[C@H](O)C[C@@H]4C[C@H](O)CC[C@]4(C)[C@H]3CC[C@]12C` [GLYCOCHENODEOXYCHOLATE], the INH in series [1] is recorded as 65.3%; in series [2], 80.2%; in series [3], 72%.

For the molecule `C[C@H](CCC(=O)NCC(=O)O)[C@H]1CC[C@H]2[C@@H]3CC[C@@H]4C[C@H](O)CC[C@]4(C)[C@H]3C[C@H](O)[C@]12C` [GLYCODEOXYCHOLATE], the INH in series [1] came out at 53.8%; in series [2], 85%; in series [3] it was 79%.

As for `NCC(=O)N1CCC[C@H]1C(=O)O` [GLYCYL PROLINE] (H-Gly-Pro-OH), the INH in series [1] is listed as 24.1%; in series [2], -8.4%; in series [3] it was 9.6%.

Consider `CC1(C)[C@@H](O[C@H]2O[C@H](C(=O)O)[C@@H](O)[C@H](O)[C@H]2O[C@@H]2O[C@H](C(=O)O)[C@@H](O)[C@H](O)[C@H]2O)CC[C@]2(C)[C@H]3C(=O)C=C4[C@@H]5C[C@@](C)(C(=O)O)CC[C@]5(C)CC[C@@]4(C)[C@]3(C)CC[C@@H]12` [GLYCYRRHIZIN], for which the INH is recorded as 28.7% in series [1], 65.8% in series [2] and 90.9% in series [3].

Take `CN[C@@H]1C[C@H](N)[C@@H](O)[C@H](O[C@H]2O[C@H](CO)[C@H](O)[C@@H]3O[C@@]4(O[C@@H]23)O[C@H]([C@H](N)CO)[C@H](O)[C@H](O)[C@H]4O)[C@H]1O` [HYGROMYCIN]: the INH in series [1] is reported as 31.5%; in series [2], 32.8%; in series [3], -4.2%.

In the case of `CC(C)Cc1ccc(C(C)C(=O)O)cc1` (centres undefined) [IBUPROFEN], the INH is given as 13.5% in series [1], 47.3% in series [2] and -6.6% in series [3].

Regarding `CN(C)CCCN1c2ccccc2CCc2ccccc21` [IMIPRAMINE], the INH is listed as 16.9% in series [1], 26.9% in series [2] and -2.4% in series [3].

Regarding `CC1(C)C(/C=C/C=C/C=C/C=C2/N(CCCCS(=O)(=O)[O-])c3ccc4ccccc4c3C2(C)C)=[N+](CCCCS(=O)(=O)[O-])c2ccc3ccccc3c21.[Na+]` [INDOCYANINE GREEN], the INH in series [1] worked out at 79.2%; in series [2], 86.1%; in series [3], 100.1%.

For the molecule `COc1ccc2c(c1)c(CC(=O)O)c(C)n2C(=O)c1ccc(Cl)cc1` [INDOMETHACIN], the INH in series [1] is listed as -82.4%; in series [2] it was 88.6%; in series [3] it was 48.6%.

In the case of `CCc1c2c(nc3ccc(OC(=O)N4CCC(N5CCCCC5)CC4)cc13)-c1cc3c(c(=O)n1C2)COC(=O)[C@]3(O)CC` [IRINOTECAN], the INH in series [1] was found to be 16.3%; in series [2] it was 40.5%; in series [3] it was 26.9%.

Turning to `NNC(=O)c1ccncc1` [ISONIAZID], the INH in series [1] amounted to 23.8%; in series [2], 29.9%; in series [3] it was 18.7%.

`COC(=O)C1=C(C)NC(C)=C(C(=O)OC(C)C)C1c1cccc2nonc12` (centres undefined) [ISRADIPINE]: the INH was found to be 12% in series [1], 47.5% in series [2] and 7.7% in series [3].

Turning to `CCC(C)n1ncn(-c2ccc(N3CCN(c4ccc(OCC5COC(Cn6cncn6)(c6ccc(Cl)cc6Cl)O5)cc4)CC3)cc2)c1=O` (centres undefined) [ITRACONAZOLE], the INH is 59.8% in series [1], 22.3% in series [2] and -2.3% in series [3].

For `CC(=O)N1CCN(c2ccc(OCC3COC(Cn4ccnc4)(c4ccc(Cl)cc4Cl)O3)cc2)CC1` (centres undefined) [KETOCONAZOLE], the INH in series [1] is given as 44%; in series [2], 53.6%; in series [3], 24.7%.

`Nc1nnc(-c2cccc(Cl)c2Cl)c(N)n1` [LAMOTRIGINE]: the values for the INH in series [1], in series [2] and in series [3] were 13.6%, 24.9% and 14.5%, respectively.

As to `Cc1c(OCC(F)(F)F)ccnc1C[S+]([O-])c1nc2ccccc2[nH]1` (centres undefined) [LANSOPRAZOLE], the INH in series [1] is -75.7%; in series [2] it was 31.4%; in series [3], 23.3%.

On to `NCCCC[C@H](N[C@@H](CCc1ccccc1)C(=O)O)C(=O)N1CCC[C@H]1C(=O)O` [LISINOPRIL ANHYDROUS], for which the results for the INH in series [1], in series [2] and in series [3] were 19.2%, 4.6% and 9%, respectively.

With `CN(C)C(=O)C(CCN1CCC(O)(c2ccc(Cl)cc2)CC1)(c1ccccc1)c1ccccc1` [LOPERAMIDE], the figures for the INH in series [1], in series [2] and in series [3] were 19.6%, 32.5% and 32.4%, respectively.

`Cc1cccc(C)c1OCC(=O)N[C@@H](Cc1ccccc1)[C@@H](O)C[C@H](Cc1ccccc1)NC(=O)[C@H](C(C)C)N1CCCNC1=O` [LOPINAVIR]: the INH is given as 86.4% in series [1], 85.8% in series [2] and 84.6% in series [3].

Turning to `CC[C@H](C)C(=O)O[C@H]1C[C@@H](C)C=C2C=C[C@H](C)[C@H](CC[C@@H]3C[C@@H](O)CC(=O)O3)[C@H]21` [LOVASTATIN], the INH in series [1] is -17.9%; in series [2], 66.5%; in series [3] it was 21.3%.

As to `CCC1(c2ccccc2)NC(=O)N(C)C1=O` (centres undefined) [MEPHENYTOIN], the results for the INH in series [1], in series [2] and in series [3] were 32.9%, -5.7% and -0.6%, respectively.

In the case of `CN(Cc1cnc2nc(N)nc(N)c2n1)c1ccc(C(=O)N[C@@H](CCC(=O)O)C(=O)O)cc1` [METHOTREXATE], the INH is given as -13.4% in series [1], 27.4% in series [2] and 17.2% in series [3].

For the molecule `COc1c2occc2cc2ccc(=O)oc12` [METHOXSALEN], the results for the INH in series [1], in series [2] and in series [3] were -1.6%, 38.1% and 8.9%, respectively.

Regarding `COCCc1ccc(OCC(O)CNC(C)C)cc1` (centres undefined) [METOPROLOL], the INH in series [1] worked out at 30.5%; in series [2], 28.1%; in series [3], 19.8%.

With `Cc1ncc2n1-c1ccc(Cl)cc1C(c1ccccc1F)=NC2` [MIDAZOLAM], the figures for the INH in series [1], in series [2] and in series [3] were 22.7%, 32.9% and 6.7%, respectively.
